Data as given in the NIST ThermoML archive (doi:10.1016/j.fluid.2010.02.037).

Conditions: Gas, Oscillating disk viscometry

CCN(CC)CC [triethylamine]
Conditions | viscosity [mPa·s]
296.98 K, Amount density=4.2 mol/m3 | 0.006418
297.59 K, Amount density=6.31 mol/m3 | 0.006412
297.87 K, Amount density=8.75 mol/m3 | 0.006427
297.97 K, Amount density=4.2 mol/m3 | 0.006439
297.98 K, Amount density=4.99 mol/m3 | 0.00644
298.33 K, Amount density=4.99 mol/m3 | 0.006437
299.24 K, Amount density=7.52 mol/m3 | 0.006446
299.36 K, Amount density=6.31 mol/m3 | 0.006449
299.67 K, Amount density=2.2 mol/m3 | 0.00649
299.85 K, Amount density=2.2 mol/m3 | 0.006485
300.02 K, Amount density=3.13 mol/m3 | 0.006488
300.11 K, Amount density=8.75 mol/m3 | 0.00646
303.12 K, Amount density=3.13 mol/m3 | 0.006548
310.02 K, Amount density=4.2 mol/m3 | 0.006668
310.29 K, Amount density=6.31 mol/m3 | 0.006654
311.78 K, Amount density=8.75 mol/m3 | 0.006667
313.96 K, Amount density=2.2 mol/m3 | 0.006764
314.61 K, Amount density=4.99 mol/m3 | 0.00675
316.33 K, Amount density=3.13 mol/m3 | 0.006815
324.05 K, Amount density=8.75 mol/m3 | 0.006913
324.26 K, Amount density=3.13 mol/m3 | 0.006981
324.9 K, Amount density=6.31 mol/m3 | 0.006948
324.95 K, Amount density=4.2 mol/m3 | 0.006971
325.84 K, Amount density=4.99 mol/m3 | 0.00698
326.04 K, Amount density=7.52 mol/m3 | 0.006979
326.63 K, Amount density=2.2 mol/m3 | 0.007024
337.84 K, Amount density=6.31 mol/m3 | 0.007205
338.12 K, Amount density=7.52 mol/m3 | 0.007218
338.25 K, Amount density=4.99 mol/m3 | 0.007233
338.31 K, Amount density=3.13 mol/m3 | 0.007259
338.63 K, Amount density=4.2 mol/m3 | 0.007245
338.92 K, Amount density=8.75 mol/m3 | 0.007217
339.05 K, Amount density=2.2 mol/m3 | 0.007275
352.32 K, Amount density=7.52 mol/m3 | 0.007513
352.34 K, Amount density=8.75 mol/m3 | 0.007487
352.41 K, Amount density=6.31 mol/m3 | 0.007492
352.46 K, Amount density=4.99 mol/m3 | 0.007529
352.5 K, Amount density=2.2 mol/m3 | 0.007551
352.91 K, Amount density=3.13 mol/m3 | 0.007557
353.3 K, Amount density=4.2 mol/m3 | 0.007551
365.86 K, Amount density=4.2 mol/m3 | 0.007803
366.42 K, Amount density=8.75 mol/m3 | 0.007782
366.49 K, Amount density=3.13 mol/m3 | 0.007839
366.6 K, Amount density=2.2 mol/m3 | 0.007842
366.72 K, Amount density=7.52 mol/m3 | 0.007801
366.77 K, Amount density=6.31 mol/m3 | 0.007784
367.25 K, Amount density=4.99 mol/m3 | 0.007831
380.54 K, Amount density=4.99 mol/m3 | 0.008109
380.67 K, Amount density=3.13 mol/m3 | 0.008129
381.06 K, Amount density=8.75 mol/m3 | 0.008076
381.14 K, Amount density=2.2 mol/m3 | 0.008137
381.83 K, Amount density=6.31 mol/m3 | 0.008106
385.41 K, Amount density=4.2 mol/m3 | 0.008217
385.75 K, Amount density=7.52 mol/m3 | 0.008206
394.25 K, Amount density=4.2 mol/m3 | 0.008388
394.49 K, Amount density=6.31 mol/m3 | 0.00837
394.51 K, Amount density=4.99 mol/m3 | 0.008386
394.56 K, Amount density=2.2 mol/m3 | 0.008413
394.86 K, Amount density=7.52 mol/m3 | 0.008384
394.95 K, Amount density=3.13 mol/m3 | 0.008423
395.11 K, Amount density=8.75 mol/m3 | 0.008369
408.35 K, Amount density=8.75 mol/m3 | 0.00864
408.97 K, Amount density=6.31 mol/m3 | 0.008662
409.2 K, Amount density=2.2 mol/m3 | 0.008718
409.32 K, Amount density=4.99 mol/m3 | 0.008707
409.67 K, Amount density=7.52 mol/m3 | 0.00869
409.73 K, Amount density=4.2 mol/m3 | 0.008711
412.99 K, Amount density=3.13 mol/m3 | 0.008804
422.67 K, Amount density=8.75 mol/m3 | 0.008939
422.79 K, Amount density=2.2 mol/m3 | 0.008996
423.03 K, Amount density=7.52 mol/m3 | 0.008963
423.25 K, Amount density=4.99 mol/m3 | 0.008991
423.41 K, Amount density=3.13 mol/m3 | 0.009012
423.92 K, Amount density=6.31 mol/m3 | 0.008966
423.93 K, Amount density=4.2 mol/m3 | 0.008988
436.97 K, Amount density=4.2 mol/m3 | 0.009275
437.11 K, Amount density=6.31 mol/m3 | 0.009249
437.42 K, Amount density=2.2 mol/m3 | 0.009296
437.51 K, Amount density=3.13 mol/m3 | 0.009315
437.62 K, Amount density=4.99 mol/m3 | 0.009286
437.76 K, Amount density=8.75 mol/m3 | 0.009255
437.87 K, Amount density=7.52 mol/m3 | 0.009269
451.28 K, Amount density=4.99 mol/m3 | 0.009572
451.45 K, Amount density=8.75 mol/m3 | 0.009534
451.66 K, Amount density=6.31 mol/m3 | 0.009554
451.72 K, Amount density=2.2 mol/m3 | 0.009594
451.74 K, Amount density=3.13 mol/m3 | 0.009599
451.76 K, Amount density=4.2 mol/m3 | 0.009586
451.93 K, Amount density=7.52 mol/m3 | 0.009558
465.92 K, Amount density=6.31 mol/m3 | 0.009846
466.45 K, Amount density=4.99 mol/m3 | 0.009879
466.58 K, Amount density=2.2 mol/m3 | 0.009907
466.63 K, Amount density=8.75 mol/m3 | 0.009851
466.71 K, Amount density=4.2 mol/m3 | 0.009893
469.98 K, Amount density=3.13 mol/m3 | 0.009985
471.39 K, Amount density=7.52 mol/m3 | 0.009972
480.12 K, Amount density=8.75 mol/m3 | 0.01013
480.36 K, Amount density=2.2 mol/m3 | 0.01019
480.43 K, Amount density=4.99 mol/m3 | 0.01017
480.7 K, Amount density=7.52 mol/m3 | 0.01015
480.86 K, Amount density=3.13 mol/m3 | 0.0102
481.09 K, Amount density=6.31 mol/m3 | 0.01015
481.32 K, Amount density=4.2 mol/m3 | 0.01019
495.17 K, Amount density=6.31 mol/m3 | 0.01045
495.29 K, Amount density=4.99 mol/m3 | 0.01047
495.31 K, Amount density=4.2 mol/m3 | 0.01049
495.84 K, Amount density=7.52 mol/m3 | 0.01046
496.21 K, Amount density=8.75 mol/m3 | 0.01046
498.38 K, Amount density=3.13 mol/m3 | 0.01057
498.45 K, Amount density=2.2 mol/m3 | 0.01056
